In patent US8257915B2, “Farnesyltransferase inhibitors for treatment of laminopathies, cellular aging and atherosclerosis” (Progeria Research Foundation, Inc., priority 2002, dated 2012):
Read-outs that look alike come from different tables or passages of the source.

Columns and labels:
[1] = test system: normal fibroblasts (GM08398) transiently expressing GFP-lamin A or GFP-progerin; test: Nuclear morphology and GFP localization in normal fibroblasts transiently expressing GFP-lamin A or GFP-progerin, exposed to FTI; assay type: cell-based, human; details: 100 nM FTI, 72 hours
Procedure: (§1) FIG. 7 illustrates the effect of a 72 hour exposure to 100 nM FTI (PD169451) on GFP-lamin A (A) and GFP-progerin (B) localization, protein processing (C) and nuclear morphology (D and E). Confocal microscopy was used to examine the effects of FTIs on transiently-expressed GFP-lamin A (A) and GFP-progerin (B) in normal fibroblasts. Three focal planes are shown—top, middle and bottom (from left to right). Exposure to 100 nM FTI for 72 hours caused about half of the endogenous lamin A to be unprocessed pre-lamin A in normal and HGPS fibroblasts (C). Exposure to the FTI increased the percent of mock transfected cells and GFP-lamin A expressing cells with abnormal nuclear morphology (D). However, the percentage of cells expressing GFP-progerin with an abnormal nuclear morphology decreased by 33% when exposed to the FTI for 72 hours.
GFP localization: Normal and HGPS fibroblasts were plated on coverslips in six well plates or in chambered microscope slides (BD Biosciences) 24 hours prior to transfection. Fibroblasts were transiently transfected with the GFP-lamin A or GFP-progerin expression constructs using FUGENE®6 transfection reagent (Roche). Seventy-two hours later the cells were washed two times with PBS (pH 7.2) and fixed for 20 minutes at 4° C. with 4% paraformaldehyde in PBS containing 62.5 µg/ml LPC palmitoyl and 1 U/ml rhodamine phalloidin (Molecular Probes) to stain the cytoskeleton. Following three washes with PBS, Prolong Gold mounting medium with DAPI (Molecular Probes) was applied to the coverslips which were then inverted and placed on microscope slides.
Normal and HGPS fibroblasts were plated on coverslips in 6 well plates 24 hours prior to transfection. Normal fibroblasts were transiently transfected with the GFP-lamin A or GFP-progerin expression constructs using FUGENE®6 transfection reagent (Roche). The following day, the medium was replaced with growth medium containing 0 nM, 100 nM, 500 nM or […] of the FTI, PD169451. […]

[2] = test system: HGPS fibroblasts (AG11498, P01, HGADFN136, HGADFN004); test: Nuclear morphology of HGPS fibroblasts maintained in FTI; assay type: cell-based, human
Procedure: (§2) FIG. 10 illustrates the effect of long-term exposure to low doses of FTI (PD169451) on the nuclear morphology of normal (GM08398 and HGMDFN090) and HGPS (AG11498, P01, HGADFN136 and HGADFN004) fibroblasts. Fibroblasts were maintained in medium with 0 nM, 10 nM or 100 nM FTI. Cultures were plated in chambered microscope slides 24 hours prior to fixing with 4% paraformaldehyde for nuclear morphology studies. **—Too few cells to count. […] All cell lines were passage 6 at the beginning of the analysis except for HGADFN004, which was at passage 12.
(§3) Normal and HGPS fibroblasts were maintained in T75 tissue culture flasks with 0 nM, 10 nM, and 100 nM concentrations of the FTI, PD169451, added to the growth medium. The medium was changed every 2 days and the cells were split when they were approximately 80% confluent. Three days prior to each time point, a flask was trypsinized and cells were placed in chambered microscope slides (BD Biosciences) and maintained in the appropriate FTI concentration. Seventy-two hours later the cells were washed two times with PBS (pH 7.2) and fixed for 20 minutes at 4° C. with 4% paraformaldehyde in PBS containing 62.5 µg/ml LPC palmitoyl and 1 U/ml rhodamine phalloidin (Molecular Probes) to stain the cytoskeleton. Following three washes with PBS, […] of ProLong Gold mounting medium with DAPI (Molecular Probes) was applied and the cells were overlaid with a coverslip.

[3] = test system: normal fibroblasts (GM08398 and HGMDFN090); test: Nuclear morphology of normal fibroblasts maintained in FTI; assay type: cell-based, human
Procedure: as §2, §3

[4] = test system: normal fibroblasts (GM08398) stably expressing GFP-lamin A, GFP-progerin and GFP-LA(L647R); test: Nuclear morphology and GFP localization in normal fibroblasts stably expressing GFP fusions (retroviral TET-OFF), exposed to FTI; assay type: cell-based, human
Procedure: FIG. 11 illustrates the effect of the FT1, PD169451, on the nuclear morphology of normal fibroblasts (GM08398) stably expressing GFP-lamin A, GFP-progerin and GFP-LA(L647R) using a retroviral TET-OFF® expression vector system (Clontech). Fibroblasts were maintained in medium with 0 nM, 10 nM or 100 nM FTI for 6 days.
Cultures were plated in chambered microscope slides 24 hours prior to fixing with 4% paraformaldehyde for nuclear morphology studies. Cells were maintained in three predetermined tetracycline concentrations, 0 mM for full expression (A), 0.05 mM for intermediate expression levels (B), and 8 mM for very low expression levels (C). […] Analysis of nuclear morphology was performed in a double blinded fashion with at least 70 cells analyzed per sample.
FIG. 12 illustrates the effect of FTI on the distribution of GFP signal in normal fibroblasts (GM08398) expressing GFP-lamin A (panels A, B and C), GFP-progerin (D, E and F) and GFP-LA(L647R) (G, H, and I) using a retroviral TET-OFF® expression vector system with various FTI concentrations. Fibroblasts were maintained in medium with 0 nM (A, D, G), 10 nM (B, E, and H) or 100 nM (C, F and I) FTI for six days. Expression levels of the GFP fusions were maintained at levels similar to endogenous levels of lamin A by the addition of 0.05 mg/ml tetracycline. Signals were visualized with a Zeiss AXIOPHOT™ Fluorescent microscope and imaging was performed using the Olympus DP70 Digital Camera System.
Retroviral Constructs: The pRevTetOff vector and pRevTRE constructs were transfected using FUGENE®6 transfection reagent into the Amphotropic Phoenix retroviral packaging line (Peter Nolan, Stanford University). Forty-eight hours after transfection the media containing retrovirus was filtered through a 0.22 micron filter and used immediately or stored at −70° C. Retroviral infection was performed by exposing target cells to a 1:1 mix of retroviral supernatant and growth medium with 4 μg/ml polybrene.
By way of example, GFP-lamin A and GFP-progerin were expressed from TET-OFF® retroviral expression vector constructs that allowed for sustained expression and modulation of expression to address the possibility of results due to over-expression of the fusion proteins when the proteins were transiently expressed. In addition, a cleavage minus mutant, GFP-LA(L647R), was included to examine the effect of retaining the farnesyl group without the 50 amino acid deletion found in progerin.

[5] = test system: endogenous lamin A; test: Lamin A processing (pre-lamin A) by immunoblot after FTI exposure; assay type: cell-based, human; details: 100 nM FTI, 72 hours; normal and HGPS fibroblasts
Procedure: as §1
Immunoblotting: Proteins were transferred to Immobilon-P membrane (Millipore) using a Trans-Blot semi-dry electrophoretic transfer cell (BioRad) blocked with 5% dry milk in TBST and probed with lamin A/C specific antibodies according to standard protocols.

[6] = cited from earlier work
[7] = 10 nM FTI, 6 days, intermediate expression (0.05 mg/ml tetracycline), p<0.0001

With `CC(C)(CNC(=O)CN(Cc1ccc(OCc2ccccc2)cc1)C(=O)[C@H](Cc1cnc[nH]1)NC(=O)OCc1ccccc1)c1ccccc1` [PD169451] the “effect on the localization of transiently expressed GFP-lamin A and GFP-progerin” value [1] was “significant effect”, the “percent of mock transfected cells and GFP-lamin A expressing cells with abnormal nuclear morphology” value [1] was “increased” and the “decrease in the percentage of cells expressing GFP-progerin with an abnormal nuclear morphology” value ([1]; normal fibroblasts transiently expressing GFP-progerin) was 33%. For the same compound, the “percentage of abnormal nuclei in HGPS fibroblasts and in normal fibroblasts expressing GFP-progerin” value ([2]; 10 nM FTI) was “significantly lowered”, the “drop in abnormal morphology” value ([2]; 10 nM FTI, 14 days, HGPS cell line HGADFN004) was 12% and the “decrease in abnormal nuclei” value ([2]; 10 nM FTI, 14 days, three HGPS lines each) was ≥ 70%. The “reduction in the percent of cells with abnormal nuclei” value ([2]; 10 nM FTI, two days, four HGPS cell lines) was ~40%, the “growth of HGADFN004 line” value ([2]; 100 nM FTI, 14 day time point) was “failed to grow” and the “drop in the percent of cells with abnormal nuclear morphology” value ([2]; AG11498 line, various FTI concentrations, three days) was ≤ 40%. For the same compound, the “FTI dose that caused cells to stop dividing after a week to 10 days” value ([2]; long-term exposure, normal and HGPS fibroblasts) was “greater than 200 nM”, the nuclear morphology phenotype ([2]; normal fibroblasts expressing progerin and HGPS fibroblasts (summary of Example 3)) was “significant improvement” and the “abnormal nuclear morphology in normal fibroblasts, dose dependence” value ([3]; 0, 10, 100 nM FTI) was “dose dependent manner”. For the same compound, the “nuclear morphology of normal cells” value ([3]; 10 nM FTI) was “did not substantially alter”, the “abnormal nuclear morphology in normal fibroblasts” value ([3]; high doses of the FTI, greater than 200 nM) was “increase in abnormal nuclear morphology” and the “reduction of percent abnormal nuclei, GFP-LA(L647R)” value [4, 7] was 67%. The “reduction of percent abnormal nuclei, GFP-progerin” value [4, 7] was 71%, the “reorganization of GFP signal for any of the fusion proteins” value ([4]; 10 nM FTI, stable expression) was “did not lead to this drastic reorganization” and the “effect on abnormal nuclear morphology at very high expression levels of GFP-progerin or GFP-LA(L647R)” value ([4]; 10 nM FTI, no tetracycline) was “could not overcome”. For the same compound, the “localization of GFP-lamin A and GFP-progerin” value ([4]; 100 nM FTI, stable expression) was “localize to intranuclear filaments”, the “localization of GFP-tagged L647R mutant” value ([4]; 100 nM FTI, stable expression) was “redistributed to intranuclear filaments” and the “improvement in abnormal nuclear morphology at 100 nM in comparison to 10 nM” value ([4]; 100 nM FTI, intermediate expression of GFP-progerin and GFP-LA(L647R)) was “less profound”. The “endogenous lamin A present as unprocessed pre-lamin A” value [5] was “about half”.
In the case of `Cn1cncc1[C@@](N)(c1ccc(Cl)cc1)c1ccc2c(c1)c(-c1cccc(Cl)c1)cc(=O)n2C` [tipifarnib], the tolerability ([6]; Phase III trials, including trials involving children) is listed as “well tolerated” and the tolerability ([6]; clinical trials) is listed as “well tolerated”.
